From PubChem BioAssay AID330 (DTP/NCI, 2004)
Values joined by “and” are separate entries in the source; they are usually repeats but may differ in a detail not shown here. Equal entries are not always repeated. Toxic doses and inconclusive results are not listed.

Test system: P388 leukemia ip, CD2F1 mice, survival T/C
Test: NCI In Vivo Anticancer Drug Screen. Data for tumor model P388 Leukemia (intraperitoneal) in CD2F1 (CDF1) mice
Details: endpoint: median survival time, higher = longer survival
In short: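 Mice carrying the transplanted tumor received test compound or vehicle. Survival was recorded in each group, and the value is the treated-group measurement divided by that of the vehicle-treated control group.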

[1] = dose: 50.0 mg/kg/injection, schedule: Q01DX005 (ip), vehicle: Klucel (hydroxypropylcellulose) (HPC)
[2] = dose: 100.0 mg/kg/injection, schedule: Q01DX005 (ip), vehicle: Klucel (hydroxypropylcellulose) (HPC)
[3] = dose: 200.0 mg/kg/injection, schedule: Q01DX005 (ip), vehicle: Klucel (hydroxypropylcellulose) (HPC)
[4] = dose: 60.0 mg/kg/injection, schedule: Q01DX005 (ip), vehicle: saline with Tween-80
[5] = dose: 120.0 mg/kg/injection, schedule: Q01DX005 (ip), vehicle: saline with Tween-80
[6] = dose: 240.0 mg/kg/injection, schedule: Q01DX005 (ip), vehicle: saline with Tween-80
[7] = dose: 100.0 mg/kg/injection, schedule: Q04DX003 (ip), vehicle: saline
[8] = dose: 6.25 mg/kg/injection, schedule: Q01DX009 (ip), vehicle: saline
[9] = dose: 100.0 mg/kg/injection, schedule: Q04DX003 (ip), vehicle: saline with Tween-80
[10] = dose: 200.0 mg/kg/injection, schedule: Q04DX003 (ip), vehicle: saline with Tween-80
[11] = dose: 400.0 mg/kg/injection, schedule: Q04DX003 (ip), vehicle: saline with Tween-80

Q: With `CCC(O)C(C)C=O` (configuration not stated) as the compound, how does the T/C (dose: 60.0 mg/kg/injection, schedule: Q01DX005 (ip), vehicle: saline) read?
A: 107 % of control

Q: And the T/C (dose: 120.0 mg/kg/injection, schedule: Q01DX005 (ip), vehicle: saline)?
A: 100 % of control

Q: And the T/C (dose: 240.0 mg/kg/injection, schedule: Q01DX005 (ip), vehicle: saline)?
A: 104 % of control

Q: `O=c1[nH]c(=O)c2cc3[nH]ncc3cc2[nH]1` was tested. Which T/C (dose: 25.0 mg/kg/injection, schedule: Q01DX005 (ip), vehicle: saline with Tween-80) did it give?
A: 93 % of control

Q: And the T/C (dose: 50.0 mg/kg/injection, schedule: Q01DX005 (ip), vehicle: saline with Tween-80)?
A: 93 % of control

Q: What about the T/C (dose: 100.0 mg/kg/injection, schedule: Q01DX005 (ip), vehicle: saline with Tween-80) of the same compound?
A: 92 % of control

Q: Which results are given for `NCCCCC(NC(=O)OCC1c2ccccc2-c2ccccc21)C(=O)O` (configuration not stated)?
A: T/C [1]: 99 % of control; T/C [2]: 99 % of control; T/C [3]: 109 % of control

Q: What does the source list for `COC(=O)c1cc(Nc2ccccc2)c2ncccc2c1O`?
A: T/C [4]: 92 % of control; T/C [5]: 98 % of control; T/C [6]: 98 % of control

Q: What does the source list for `Cc1ccc(C)c2c1C(=O)c1c(C)ccc(C)c1C2=O`?
A: T/C (dose: 1.5 mg/kg/injection, schedule: Q01DX005 (ip), vehicle: Klucel (hydroxypropylcellulose) (HPC)): 99 % of control; T/C (dose: 3.0 mg/kg/injection, schedule: Q01DX005 (ip), vehicle: Klucel (hydroxypropylcellulose) (HPC)): 94 % of control; T/C (dose: 6.0 mg/kg/injection, schedule: Q01DX005 (ip), vehicle: Klucel (hydroxypropylcellulose) (HPC)): 89 % of control; T/C [1]: 90 % of control; T/C [2]: 87 % of control; T/C [3]: 86 % of control

Q: For `Cc1cnc(NCCCCCCCCNc2ncc(C)c(-c3ccccc3O)n2)nc1-c1ccccc1O`, which T/C [7] is on record?
A: 95 % of control

Q: What about the T/C (dose: 200.0 mg/kg/injection, schedule: Q04DX003 (ip), vehicle: saline) of the same compound?
A: 93 % of control

Q: And the T/C (dose: 400.0 mg/kg/injection, schedule: Q04DX003 (ip), vehicle: saline)?
A: 89 % of control

Q: For `COc1ccc2[nH]c3c(C)c4cc[n+](C)cc4c(C)c3c2c1`, which T/C (dose: 3.13 mg/kg/injection, schedule: Q01DX009 (ip), vehicle: saline) is on record?
A: 153 % of control

Q: And the T/C [8]?
A: 100 % of control

Q: `O=P(N1CCCCC1)(N1CC1)N1CC1` was tested. Which T/C (dose: 5.0 mg/kg/injection, schedule: Q04DX003 (ip), vehicle: saline) did it give?
A: 108 % of control

Q: What about the T/C (dose: 5.56 mg/kg/injection, schedule: Q01DX009 (ip), vehicle: saline) of the same compound?
A: 195 % of control

Q: And the T/C [8]?
A: 163 % of control

Q: What about the T/C (dose: 10.0 mg/kg/injection, schedule: Q04DX003 (ip), vehicle: saline) of the same compound?
A: 120 % of control

Q: And the T/C (dose: 12.5 mg/kg/injection, schedule: Q01DX009 (ip), vehicle: saline)?
A: 227 % of control and 86 % of control

Q: What about the T/C (dose: 20.0 mg/kg/injection, schedule: Q04DX003 (ip), vehicle: saline) of the same compound?
A: 220 % of control

Q: What about the T/C (dose: 25.0 mg/kg/injection, schedule: Q01DX009 (ip), vehicle: saline) of the same compound?
A: 90 % of control

Q: `Cc1nnc2c3nccnc3c(N)nn12` was tested. Which T/C [4] did it give?
A: 96 % of control

Q: And the T/C [5]?
A: 104 % of control

Q: What about the T/C [6] of the same compound?
A: 104 % of control

Q: Which T/C (dose: 50.0 mg/kg/injection, schedule: Q04DX003 (ip), vehicle: saline with Tween-80) does the source give for `CCCCNc1nc(SC)nc2nc[nH]c12` here?
A: 100 % of control

Q: And the T/C [9]?
A: 98 % of control

Q: What about the T/C [10] of the same compound?
A: 96 % of control

Q: And the T/C [11]?
A: 95 % of control

Q: How did the T/C (dose: 30.0 mg/kg/injection, schedule: Q01DX005 (ip), vehicle: Klucel (hydroxypropylcellulose) (HPC)) turn out when `O=C1CSC(C2CCCCC2)N1c1nncs1` (configuration not stated) was run?
A: 100 % of control

Q: What about the T/C (dose: 60.0 mg/kg/injection, schedule: Q01DX005 (ip), vehicle: Klucel (hydroxypropylcellulose) (HPC)) of the same compound?
A: 100 % of control

Q: And the T/C (dose: 120.0 mg/kg/injection, schedule: Q01DX005 (ip), vehicle: Klucel (hydroxypropylcellulose) (HPC))?
A: 101 % of control

Q: And the T/C (dose: 240.0 mg/kg/injection, schedule: Q01DX005 (ip), vehicle: Klucel (hydroxypropylcellulose) (HPC))?
A: 107 % of control

Q: `Cc1cc(C)nc(NS(=O)(=O)c2ccc(NC(=O)Nc3ccc([N+](=O)[O-])cc3Cl)cc2)n1` was tested. Which T/C (dose: 50.0 mg/kg/injection, schedule: Q01DX009 (ip), vehicle: Klucel (hydroxypropylcellulose) (HPC)) did it give?
A: 94 % of control

Q: And the T/C (dose: 100.0 mg/kg/injection, schedule: Q01DX009 (ip), vehicle: Klucel (hydroxypropylcellulose) (HPC))?
A: 86 % of control

Q: What does the source list for `O=C1c2ccccc2CCC1Cl` (configuration not stated)?
A: T/C (dose: 1.56 mg/kg/injection, schedule: Q01DX009 (ip), vehicle: DMSO): 100 % of control; T/C (dose: 3.12 mg/kg/injection, schedule: Q01DX009 (ip), vehicle: DMSO): 103 % of control; T/C (dose: 6.25 mg/kg/injection, schedule: Q01DX009 (ip), vehicle: DMSO): 94 % of control and 97 % of control; T/C (dose: 12.5 mg/kg/injection, schedule: Q01DX009 (ip), vehicle: DMSO): 102 % of control; T/C (dose: 25.0 mg/kg/injection, schedule: Q01DX009 (ip), vehicle: DMSO): 94 % of control

Q: Which results are given for `COc1cc2cc[n+](C)c(Cc3ccc(Oc4cc(Cc5c6cc(OC)c(OC)cc6cc[n+]5C)ccc4OC)cc3)c2cc1OC`?
A: T/C (dose: 2.5 mg/kg/injection, schedule: Q01DX009 (ip), vehicle: saline): 98 % of control; T/C (dose: 5.0 mg/kg/injection, schedule: Q01DX009 (ip), vehicle: saline): 99 % of control; T/C (dose: 10.0 mg/kg/injection, schedule: Q01DX009 (ip), vehicle: saline): 88 % of control

Q: With `C(=C\c1ccnnc1)/c1ccccc1` as the compound, how does the T/C (dose: 50.0 mg/kg/injection, schedule: Q01DX009 (ip), vehicle: saline) read?
A: 97 % of control

Q: And the T/C (dose: 100.0 mg/kg/injection, schedule: Q01DX009 (ip), vehicle: saline)?
A: 106 % of control

Q: And the T/C (dose: 200.0 mg/kg/injection, schedule: Q01DX009 (ip), vehicle: saline)?
A: 101 % of control

Q: With `Cn1c([N+](=O)[O-])cnc1CSC(=S)N1CCN(C(=S)SCc2ncc([N+](=O)[O-])n2C)CC1` as the compound, how does the T/C (dose: 50.0 mg/kg/injection, schedule: Q01DX009 (ip), vehicle: saline with Tween-80) read?
A: 99 % of control and 104 % of control and 96 % of control

Q: And the T/C (dose: 100.0 mg/kg/injection, schedule: Q01DX009 (ip), vehicle: saline with Tween-80)?
A: 101 % of control and 93 % of control and 95 % of control

Q: What about the T/C (dose: 200.0 mg/kg/injection, schedule: Q01DX009 (ip), vehicle: saline with Tween-80) of the same compound?
A: 102 % of control and 107 % of control and 92 % of control

Q: For `O=C(OC1CCC2(CC1)SCCS2)c1ccccc1`, which T/C [9] is on record?
A: 100 % of control

Q: What about the T/C [10] of the same compound?
A: 100 % of control

Q: And the T/C [11]?
A: 104 % of control

Q: What does the source list for `O=C(O)C(=O)O.O=C([O-])C(=O)[O-].O=C([O-])C(=O)[O-].[NH-]CC[NH-].[NH-]CC[NH-].[NH-]CC[NH-].[Ru+4].[Ru+5]`?
A: T/C (dose: 25.0 mg/kg/injection, schedule: Q04DX003 (ip), vehicle: water): 117 % of control; T/C (dose: 50.0 mg/kg/injection, schedule: Q04DX003 (ip), vehicle: water): 151 % of control

Q: What does the source list for `Nc1cc(Cl)cc2c1-c1ccc(Cl)cc1C2=O`?
A: T/C (dose: 25.0 mg/kg/injection, schedule: Q01DX005 (ip), vehicle: Klucel (hydroxypropylcellulose) (HPC)): 96 % of control; T/C [1]: 91 % of control; T/C [2]: 90 % of control; T/C [3]: 89 % of control

Q: For `NCCn1[nH]c(=O)c2ncccc2c1=O`, which T/C [4] is on record?
A: 108 % of control

Q: And the T/C [5]?
A: 105 % of control

Q: For `Cc1cc(=NCCCN(C)C)c2ccc3c(ccc4c(=NCCCN(C)C)cc(C)n(O)c43)c2n1O`, which T/C (dose: 6.25 mg/kg/injection, schedule: Q01DX009 (ip), vehicle: water) is on record?
A: 106 % of control and 111 % of control

Q: And the T/C (dose: 12.5 mg/kg/injection, schedule: Q01DX009 (ip), vehicle: distilled water + alcohol)?
A: 102 % of control

Q: What about the T/C (dose: 12.5 mg/kg/injection, schedule: Q01DX009 (ip), vehicle: water) of the same compound?
A: 100 % of control and 103 % of control and 109 % of control

Q: And the T/C (dose: 25.0 mg/kg/injection, schedule: Q01DX009 (ip), vehicle: distilled water + alcohol)?
A: 102 % of control

Q: What about the T/C (dose: 25.0 mg/kg/injection, schedule: Q01DX009 (ip), vehicle: water) of the same compound?
A: 108 % of control and 116 % of control

Q: What about the T/C (dose: 50.0 mg/kg/injection, schedule: Q01DX009 (ip), vehicle: distilled water + alcohol) of the same compound?
A: 105 % of control

Q: Which T/C (dose: 100.0 mg/kg/injection, schedule: Q04DX003 (ip), vehicle: Klucel (hydroxypropylcellulose) (HPC)) does the source give for `O=c1oc2c3c4c(cc2c2c1CCC2)CCCN4CCC3` here?
A: 102 % of control

Q: And the T/C (dose: 200.0 mg/kg/injection, schedule: Q04DX003 (ip), vehicle: Klucel (hydroxypropylcellulose) (HPC))?
A: 101 % of control

Q: What about the T/C (dose: 400.0 mg/kg/injection, schedule: Q04DX003 (ip), vehicle: Klucel (hydroxypropylcellulose) (HPC)) of the same compound?
A: 100 % of control

Q: `Cn1c(=O)ccc2ccccc21` was tested. Which T/C (dose: 25.0 mg/kg/injection, schedule: Q04DX002 (ip), vehicle: saline with Tween-80) did it give?
A: 103 % of control

Q: What about the T/C (dose: 50.0 mg/kg/injection, schedule: Q04DX002 (ip), vehicle: saline with Tween-80) of the same compound?
A: 100 % of control

Q: What about the T/C (dose: 50.0 mg/kg/injection, schedule: Q04DX003 (ip), vehicle: saline) of the same compound?
A: 108 % of control

Q: What about the T/C (dose: 100.0 mg/kg/injection, schedule: Q04DX002 (ip), vehicle: saline with Tween-80) of the same compound?
A: 108 % of control

Q: And the T/C [7]?
A: 104 % of control and 113 % of control
